Laboratory results published in patent EP0904070B1, “THE USE OF BUCKMINSTERFULLERENE FOR TREATMENT OF NEUROTOXIC INJURY” (F. HOFFMANN-LA ROCHE AG, priority 1996, dated 1997).

Experiments:
[1] = tested on: Cortical neurons in glia-deficient culture; test: Serum deprivation apoptotic neuronal death in glia-deficient cultures (trypan blue cell counting); assay type: cell-based, Mouse; settings: 10 (M, 48 hours after onset of serum-deprivation); 10 µM
Method: Mouse neocortical cultures were prepared as neuron-astrocyte co-cultures (approximately 50% astrocytes) (Rose et al., 1992) or as neuronal cultures (< 2% astrocytes). Mouse embryos (gestational day 15) are removed from pregnant anesthetized Swiss-Webster mice, and the neocortex is dissected away from other brain structures. After brief incubation in trypsin, the cells are dissociated by trituration, and the cell suspension is then diluted into plating medium and plated onto previously-prepared 24-well Plastek culture plates coated with poly-D-lysine/laminin (for neuronal cultures) or onto an existing bed of astrocytes (for co-cultures). After 1-2 days in vitro, a partial exchange with glial conditioned medium is made for "pure" neuronal cultures, and cytosine arabinoside (3µM) is added immediately after feeding to inhibit glial proliferation. Mixed cultures are fed biweekly with growth medium until 11-12 days in vitro, when they are fed with serum-free MS containing 2 mM L-glutamine. Unless otherwise stated, cells were used at 14-16 days in vitro. […]
Additionally, neuronal cell death was determined at 48 hours removal of serum by counting cells that are no longer able to exclude trypan blue.

[2] = Solubility in water / aqueous solution; assay type: physicochemical
Text: Solutions of carboxyfullerene were translucent brown.

cortical neurons [3] = test: AMPA excitotoxic neuronal injury in neuron-astrocyte co-cultures (LDH efflux); assay type: cell-based, Mouse
Method: Mouse embryos (gestational day 15) are removed from pregnant anesthetized Swiss-Webster mice, and the neocortex is dissected away from other brain structures. After brief incubation in trypsin, the cells are dissociated by trituration, and the cell suspension is then diluted into plating medium and plated onto previously-prepared 24-well Plastek culture plates coated with poly-D-lysine/laminin (for neuronal cultures) or onto an existing bed of astrocytes (for co-cultures). After 1-2 days in vitro, a partial exchange with glial conditioned medium is made for "pure" neuronal cultures, and cytosine arabinoside (3µM) is added immediately after feeding to inhibit glial proliferation. Mixed cultures are fed biweekly with growth medium until 11-12 days in vitro, when they are fed with serum-free MS containing 2 mM L-glutamine. Unless otherwise stated, cells were used at 14-16 days in vitro.

cortical neurons [4] = test: NMDA excitotoxic neuronal injury in neuron-astrocyte co-cultures (LDH efflux); assay type: cell-based, Mouse; settings: for reduction of neuronal death from NMDA: 300(M, co-applied with NMDA for 10 minutes, assessed at 24 hours), all experiments performed to date
Method: Mouse neocortical cultures were prepared as neuron-astrocyte co-cultures (approximately 50% astrocytes) (Rose et al., 1992) or as neuronal cultures (< 2% astrocytes). Mouse embryos (gestational day 15) are removed from pregnant anesthetized Swiss-Webster mice, and the neocortex is dissected away from other brain structures. After brief incubation in trypsin, the cells are dissociated by trituration, and the cell suspension is then diluted into plating medium and plated onto previously-prepared 24-well Plastek culture plates coated with poly-D-lysine/laminin (for neuronal cultures) or onto an existing bed of astrocytes (for co-cultures). After 1-2 days in vitro, a partial exchange with glial conditioned medium is made for "pure" neuronal cultures, and cytosine arabinoside (3µM) is added immediately after feeding to inhibit glial proliferation. Mixed cultures are fed biweekly with growth medium until 11-12 days in vitro, when they are fed with serum-free MS containing 2 mM L-glutamine. Unless otherwise stated, cells were used at 14-16 days in vitro.
Carboxyfullerene (3-300 (M) was co-applied to neuron-astrocyte co-cultures described above with NMDA for assessment of neuroprotection. Brief exposure to NMDA in the presence of the carboxyfullerene was carried out by triple exchange of the medium with HBBSS, followed by addition of 50µM- 500µM NMDA plus carboxyfullerene for 10 minutes. The NMDA and carboxyfullerene were removed by quadruple exchange of the medium with MS, and the cultures were placed in the humidified, CO2 (5%), 37°C incubator for 24 hours, when the extent of injury was assessed.
Neuronal death was assessed at 24 hours after NMDA or AMPA administration by phase contrast microscopy at 200-400x, and by measurement of lactate dehydrogenase (LDH) efflux from dying cells into the bathing medium (Koh and Choi, 1987). Quantitation of cell death was confirmed in some experiments by trypan blue or propidium iodide staining and cell counting.

[5] = tested on: FALS mice (Gurney GI strain); test: Survival in a transgenic model of amyotrophic lateral sclerosis; assay type: in vivo; settings: 15 mg/kg/day, intraperitoneal mini-osmotic pumps from 10 weeks of age
Method: The G1 line, with 18 copies and 4 times the SOD activity of wildtype animals, develops motor neuron death by 3-4 months of age, with hindlimb weakness, impaired grooming, and thinning along their flanks. Affected mice were dead before 5 months of age (Gurney et al., 1994).
C60(C(COOH)2)3 was used to treat FALS mice (Gurney GI strain) to determine its ability to treat FALS. At 10 weeks of age, Alzet mino-osmotic pumps (28 day, 6 (l/day, 15 mg/kg/day) containing C60(C(COOH)2)3 (the mixed isomers, which consist of >90% O-3a) or saline were implanted intraperitoneally. The pumps were replaced at 14 weeks of age. Videotaped assessments of open field walking were performed and scored using the Bresnahan scale for spinal cord injury (Basso et al., 1995). As reported by Gurney and colleagues, these animals develop motor symptoms by approximately 90 days of age, and are moribund between 125 and 145 days of age.
The 8 day increase in survival reached statistical significance (p=0.041), by t-test. There was no difference in survival for FALS mice who received no pumps (123 days, n=4) or those treated with saline-filled pumps (125 days, n=6).

wild-type animals = test: Tolerability in wild-type animals treated two months; assay type: in vivo, mice; settings: 15 mg/kg/day
NMDA receptors = test: 45Ca2+ tracer experiments, NMDA-stimulated calcium accumulation in cultured neurons; assay type: cell-based, Mouse; settings: co-application of up to 300 (M with NMDA (300 (M), 10 minutes))
Method: To verify that protection against NMDA-induced neuronal cell injury was not due to a reduction in NMDA-induced calcium influx, ^45Ca^2+ tracer studies were performed. Cultures were washed twice with HBBSS and then exposed to NMDA (300 (M), either alone or with C60(C(COOH)2)3, in HBBSS containing tracer ^45Ca^2+ (0.5 (Ci/culture well; NEN, Boston, MA). The exposure was terminated after 10 minutes by exchanging the medium four times with unlabelled HBBSS, followed by lysis of the cells by addition of 0.2% sodium dodecyl sulfate (SDS). The cells were left in SDS for 2 hours, and the lysate was then transferred to scintillation vials. An additional wash of each culture well with SDS was added to the vial, which then underwent (-counting.

[6] = Spin-trap (DMPO) electron paramagnetic resonance spectroscopy, superoxide radical scavenging (xanthine + xanthine oxidase); settings: compound co-incubated with xanthine oxidase and xanthine
[7] = tested on: endothelial cell cultures; test: Protection from injury in endothelial cell cultures; assay type: cell-based; settings: compared with R-3b
[8] = Spin-trap (DMPO) electron paramagnetic resonance spectroscopy, hydroxyl radical scavenging; settings: for scavenging of •OH by EPR: •OH from 100 µM H2O2 in Fe2+ (Fenton reaction), 100 mM DMPO, 4 µM compound
Method: Hydroxyl radical (spectra on left): ^•OH in the presence of DMPO alone (top), in the presence of 4 µM O-3a (middle), or in the presence of 4 µM R-3b (bottom). Superoxide radical (right): O2^•- in DMPO alone (top), in the presence of 400 µM O-3a (middle), in the presence of 400 µM R-3b (bottom). The arrow designates a spurious signal due to an unknown radical in the cavity. The sample was analyzed in a quartz flat cell (60 x 10 x 0.25 mm) in a Bruker 200, X-band EPR spectrometer. Settings were power = 1.6 mW, modulation = 1 G, field modulation = 100 Hz, R.G. = 3.2x10^5.

hepatocytes = test: Protection from injury in hepatocytes; assay type: cell-based; settings: compared with R-3b
[9] = Spin-label/EPR membrane experiments (5- or 16-doxyl ketostearic acid in brain lipids); assay type: physicochemical, mouse; settings: for Lipid/aqueous partition factor: f = hL/hA, measured for 16-doxylstearic acid
Method: Values are mean ± SEM, n=8-12 per conditions. * = p<0.05 vs. untreated injury condition, using ANOVA followed by Student-Newman-Keuls test for multiple comparisons. ** = p<0.05 R-3b different than O-3a. […] The spin labels were added to lipids extracted from adult mouse brain at a ratio of 1:100. EPR settings were the same as those listed in the legend for Figure 9. Both isomers produce a shift in the order parameter (S) of the 5-doxyl group, but O-3a produced a greater change in S (Table 1).

C60(C(COOH)2)3
reduction in neuronal death (serum deprivation) [1]: 50%
soluble in water [2]: at least 50 mM
reduction of neuronal cell death from AMPA (cortical neurons [3]; 100 (M, 24 hours exposure, MK-801 (10 (M) included, data from 4 experiments pooled)), 100 µM): > 80%
reduction of neuronal death from NMDA (cortical neurons [4]): nearly complete protection
reduction of neuronal death from NMDA (cortical neurons [4]; 300 µM): at least 60%
reduction in neuronal cell death (NMDA) (cortical neurons [4]; pooled data from three experiments (Fig. 5)): 75%
onset of symptoms [5]: delay in onset of symptoms
delay in death ([5]; versus saline, p = 0.041, mixed isomers, >90% O-3a): 8 ± 2.2 days
adverse health or behavioral effects (wild-type animals; n=6): no adverse health or behavioral effects
weights versus untreated littermates (wild-type animals; within genders): similar
45Ca2+ accumulation (NMDA receptors): not affected

C60(C(COOH)2)3 [Compound O-3a]
protection against AMPA-induced neuronal death, compared with R-3b (cortical neurons [3]; Fig. 10 B, n=8-12 per condition): substantially better protection
protection from injury produced by application of NMDA, compared with R-3b (cortical neurons [4]; Fig. 10 A, n=8-12 per condition): slightly better protection
superoxide radical (spin adduct DMPO-OOH) EPR signal [6]: eliminated the superoxide radical signal
protection from injury in endothelial cell cultures [7]: enhanced protection over R-3b
hydroxyl radical (spin adduct DMPO-OH) EPR signal ([8]; 150 (M compound included with H2O2, 15 minute period)): elimination of this OH signal
scavenging of •OH by EPR [8]: extremely potent scavengers
protection from injury in hepatocytes (hepatocytes): enhanced protection over R-3b
Lipid/aqueous partition factor [9]: 1.0 ± 0.2
entry into the lipid bilayer ([9]; inferred from order parameter and 16-doxyl signal): to a greater extent than R-3b

C60(C(COOH)2)3 [Compound R-3b]
neuroprotective activity (in words) (cortical neurons [4]; excitotoxic injury by NMDA and AMPA, insult not stated separately): effective neuroprotectant
superoxide radical (spin adduct DMPO-OOH) EPR signal [6]: eliminated the superoxide radical signal
scavenging of •OH by EPR [8]: extremely potent scavengers
Lipid/aqueous partition factor [9]: 0.6
